Data: ChEMBL document CHEMBL1154570, “HIV-inhibitory cembrane derivatives from a Philippines collection of the soft coral Lobophytum species” (J Nat Prod, 2000)
Values after ≈ are worked out from the molar mass of the structure shown.

Tests used:
[1] = system: Human immunodeficiency virus 1; test: Antiviral activity against HIV1 assessed as inhibition of cytopathic effect by cell based XTT assay; assay type: functional, organism-based
[2] = system: Human immunodeficiency virus 1; test: Antiviral activity against HIV1 assessed as cellular protection by cell based XTT assay; assay type: functional

C/C1=C\[C@@H]2OC(=O)[C@@H](CN(C)C)[C@@H]2CC/C(C)=C/CC/C(C(=O)O)=C/CC1
EC50 [1]: 3.3 µg/mL (≈ 8.79 µM)
IC50 [1]: 10.2 µg/mL (≈ 27.2 µM)
Activity [2]: 55%

C=C1C(=O)O[C@H]2/C=C(\C)CC/C=C(\C(=O)O)CC/C=C(\C)CC[C@@H]12 [(7Z)-LOBOHEDLEOLIDE]
EC50 [1]: 4.6 µg/mL (≈ 13.9 µM)
IC50 [1]: 7.6 µg/mL (≈ 23 µM)
Activity [2]: 55%

C=C1C(=O)O[C@H]2/C=C(\C)CC/C=C(/C(=O)O)CC/C=C(\C)CC[C@@H]12 [LOBOHEDLEOLIDE]
EC50 [1]: 3.6 µg/mL (≈ 10.9 µM)
IC50 [1]: 9 µg/mL (≈ 27.2 µM)
Activity [2]: 55%
